From BigSolDB 2.1

A solubility (mole fraction) (in acetonitrile, 278.15 K) of 0.000452, a solubility (mole fraction) (in acetonitrile, 283.15 K) of 0.000491 and a solubility (mole fraction) (in acetonitrile, 288.15 K) of 0.000528 were found for `CO[C@@]1(NC(=O)Cc2cccs2)C(=O)N2C(C(=O)O)=C(COC(N)=O)CS[C@@H]21` in this work. For the same compound, the solubility (mole fraction) (in acetonitrile, 293.15 K) was 0.00058, the solubility (mole fraction) (in acetonitrile, 298.15 K) was 0.000621 and the solubility (mole fraction) (in acetonitrile, 303.15 K) was 0.000677. It also gave a solubility (mole fraction) (in acetonitrile, 308.15 K) of 0.00076, a solubility (mole fraction) (in ethanol, 278.15 K) of 0.000403 and a solubility (mole fraction) (in ethanol, 283.15 K) of 0.000484. The solubility (mole fraction) (in ethanol, 288.15 K) was 0.000603, the solubility (mole fraction) (in ethanol, 293.15 K) was 0.000739 and the solubility (mole fraction) (in ethanol, 298.15 K) was 0.000852. For the same compound, the solubility (mole fraction) (in ethanol, 303.15 K) was 0.00103, the solubility (mole fraction) (in ethanol, 308.15 K) was 0.00118 and the solubility (mole fraction) (in ethyl acetate, 278.15 K) was 0.000229. It also gave a solubility (mole fraction) (in ethyl acetate, 283.15 K) of 0.000241, a solubility (mole fraction) (in ethyl acetate, 288.15 K) of 0.000257 and a solubility (mole fraction) (in ethyl acetate, 293.15 K) of 0.000267. For the same compound, the solubility (mole fraction) (in ethyl acetate, 298.15 K) was 0.000282, the solubility (mole fraction) (in ethyl acetate, 303.15 K) was 0.000296 and the solubility (mole fraction) (in ethyl acetate, 308.15 K) was 0.00032. It also gave a solubility (mole fraction) (in isopropanol, 278.15 K) of 4.4e-05, a solubility (mole fraction) (in isopropanol, 283.15 K) of 7.19e-05 and a solubility (mole fraction) (in isopropanol, 288.15 K) of 0.000109. The solubility (mole fraction) (in isopropanol, 293.15 K) was 0.000151, the solubility (mole fraction) (in isopropanol, 298.15 K) was 0.000186 and the solubility (mole fraction) (in isopropanol, 303.15 K) was 0.000243. The solubility (mole fraction) (in isopropanol, 308.15 K) was 0.000314, the solubility (mole fraction) (in methanol, 278.15 K) was 0.00565 and the solubility (mole fraction) (in methanol, 283.15 K) was 0.00658. It also gave a solubility (mole fraction) (in methanol, 288.15 K) of 0.00772, a solubility (mole fraction) (in methanol, 293.15 K) of 0.00919 and a solubility (mole fraction) (in methanol, 298.15 K) of 0.011. For the same compound, the solubility (mole fraction) (in methanol, 303.15 K) was 0.0129, the solubility (mole fraction) (in methanol, 308.15 K) was 0.0149 and the solubility (mole fraction) (in n-propanol, 278.15 K) was 0.000209. For the same compound, the solubility (mole fraction) (in n-propanol, 283.15 K) was 0.000253, the solubility (mole fraction) (in n-propanol, 288.15 K) was 0.000286 and the solubility (mole fraction) (in n-propanol, 293.15 K) was 0.000338. The solubility (mole fraction) (in n-propanol, 298.15 K) was 0.000394, the solubility (mole fraction) (in n-propanol, 303.15 K) was 0.000492 and the solubility (mole fraction) (in n-propanol, 308.15 K) was 0.000561.
